Data as given in patent US20220079895A1, “COMPOSITION FOR PREVENTING OR TREATING LIVER DISEASES” (AceBiomed, Inc., priority 2020, published 2022).

Tests used:
[1] = system: nonalcoholic steatohepatitis (NASH)-induced model mouse; assay: H&E staining of liver tissues, fat accumulation, NASH-induced model; type: in vivo; conditions: high fat diet 30 weeks
Method: For H&E staining, deparaffinized tissues were reacted with a 50% hematoxylin solution at room temperature for 20 minutes, reacted with 1% HCl for 1 second, and then immediately transferred to a 0.5% eosin solution and stained for 20 minutes. Thereafter, the tissue was washed with distilled water, reacted with graded alcohol and finally dehydrated with xylene. The dehydrated tissue was fixed on a coverslip using a permount.

NASH-induced model mouse [2] = assay: blood biochemical test: serum ALT, NASH-induced model; type: in vivo; conditions: for ALT: serum, HFD + Colchicine alone
Method: The activity of alanine aminotransferase (ALT) of mice was measured using an ALT activity assay kit (Sigma-Aldrich).

collagen I [3] = assay: expression of fibrosis-related gene collagen I in liver tissues, NASH-induced model; type: in vivo, mouse; conditions: high fat diet 30 weeks
Method: (§1) Total RNA was extracted using an RNeasy mini kit (Qiagen), and then synthesized into cDNA using a high-capacity cDNA reverse transcription kit (Thermo Fisher). The same amount of cDNA was amplified using a SYBR™ green PCR master mix and a 10 pM primer set for each gene. The amplification process was subjected to an initial denaturation process at 95° C. for 5 minutes, and repetitively replication at 95° C. for 10 seconds, 58.5° C. for 10 seconds, and 72° C. for 10 seconds for a total of 40 times.

TGF-β1 = assay: expression of fibrosis-related gene TGF-β1 in liver tissues, NASH-induced model; type: in vivo, mouse; conditions: high fat diet 30 weeks
Method: as §1

SREBP1 [4] = assay: expression of SREBP1 induced by palmitate in hepatocytes AML12; type: cell-based, mouse; conditions: AML12 cells; for additive interaction with colchicine in inhibiting the expression of SREBP1: 5 nM colchicine + 30 μg/ml DPP-4 inhibitor, 0.2 mM palmitate
Method: (§2) Mouse hepatocytes, AML12 cells, were incubated at 37° C., 95% air and 5% CO2 in a DMEM/F12 medium containing 5 μg/ml insulin, 5 μg/ml transferrin, 5 ng/ml selenium, 40 ng/ml dexamethasone, 10% fetal bovine serum (FBS) and 1% penicillin/streptomycin. AML12 cells pre-treated with 5 nM of colchicine and 30 μg/ml of a dipeptidyl peptidase-4 (DPP-4) inhibitor were treated with TGF-β1 (5 ng/ml) or 0.2 mM of palmitate after 8 hours, and further incubated for additional 16 hours.
as §1

NASH-induced model mouse [5] = assay: hydroxyproline in liver tissues, NASH-induced model; type: in vivo; conditions: high fat diet 30 weeks
Method: 100 mg of liver tissue was homogenized with physiological saline, and then a liver tissue supernatant was separated. The separated supernatant was hydrolyzed at 120° C. for 3 hours by adding the same amount of 12 N HCl. The cooled sample was vortexed and then centrifuged at 10,000 g for 3 minutes, and absorbance was measured at 550 nm using a final microplate reader by using a hydroxyproline assay kit.

[6] = system: ApoA1 (Apolipoprotein A1); assay: expression of fat accumulation-related gene ApoA1 in liver tissues, NASH-induced model; type: in vivo, mouse; conditions: high fat diet 30 weeks
Method: as §1

NASH-induced model mouse [7] = assay: blood biochemical test: serum AST, NASH-induced model; type: in vivo; conditions: for AST: serum, HFD + Colchicine alone
Method: The activity of aspartate aminotransferase (AST) of mice was measured using an AST activity assay kit (Abcam).

NASH-induced model mouse [8] = assay: blood biochemical test: serum total cholesterol, NASH-induced model; type: in vivo; conditions: for Total cholesterol: serum, HFD + Colchicine alone
Method: A total cholesterol amount of mice was measured using a Total cholesterol assay kit (Cell Biolabs). […] Thereafter, 50 μl of a cholesterol reaction reagent was added, and the reaction was performed at 37° C. for 45 minutes by shielding light. For the sample after the reaction, absorbance was measured at 540 to 570 nm using a microplate reader.

IL-1β [9] = assay: expression of IL-1β induced by palmitate in hepatocytes AML12; type: cell-based, mouse; conditions: AML12 cells
Method: as §2, §1

NASH-induced model mouse [10] = assay: blood biochemical test: serum triglyceride, NASH-induced model; type: in vivo; conditions: for Triglyceride: serum, HFD + Colchicine alone
Method: Triglyceride levels in mice were measured using an EZ-Triglyceride quantification assay kit (Dogen Bio). 1 ml of 5% NP-40 was added to a mouse serum sample, homogenized on ice, and then sufficiently cooled at room temperature. The sample in which all triglycerides were dissolved by heating once more was centrifuged at 13,000 rpm for 2 minutes, and then an insoluble material was removed, and the sample was diluted 10-fold with distilled water before assay. 2 μl of lipase was added to the sample dispensed in a 96 well plate by 90 μl and reacted for 20 minutes at room temperature, and then the reaction mixture was added to each sample by 50 μl, and further reacted at room temperature for 30 minutes in a light-shielded state. Thereafter, absorbance was measured at 570 nm using a microplate reader.

collagen I [11] = assay: expression of collagen I increased by TGF-β1 in hepatocytes AML12; type: cell-based, mouse; conditions: AML12 cells; for additive interaction with colchicine in inhibiting the expression of collagen I: 5 nM colchicine + 30 μg/ml DPP-4 inhibitor, TGF-β1 (5 ng/ml)
Method: as §2, §1

TNF-α = assay: expression of inflammation-related gene TNF-α in liver tissues, NASH-induced model; type: in vivo, mouse; conditions: high fat diet 30 weeks
Method: as §1

[12] = system: α-SMA (α-smooth muscle actin); assay: expression of fibrosis-related gene α-SMA in liver tissues, NASH-induced model; type: in vivo, mouse; conditions: high fat diet 30 weeks
Method: as §1

IL-1β [13] = assay: expression of inflammation-related gene IL-1β in liver tissues, NASH-induced model; type: in vivo, mouse; conditions: high fat diet 30 weeks
Method: as §1

SREBP1 [14] = assay: expression of fat accumulation-related gene SREBP1 in liver tissues, NASH-induced model; type: in vivo, mouse; conditions: high fat diet 30 weeks
Method: as §1

IL-6 = assay: expression of inflammation-related gene IL-6 in liver tissues, NASH-induced model; type: in vivo, mouse; conditions: high fat diet 30 weeks
Method: as §1

NASH-induced model mouse [15] = assay: superoxide (DHE) in liver tissues, NASH-induced model; type: in vivo; conditions: high fat diet 30 weeks
Method: In order to measure production of superoxide in liver tissues of mice, dihydroethidium (DHE) was used as a superoxide fluorescent indicator. In summary, deparaffinized liver tissue slides were reacted at 37° C. for 30 minutes with 10 μM DHE in a light-shielded humidity chamber. After the reaction, fluorescence indicating DHE was measured through a filter in a wavelength band of 580 nm in an Olympus FV1000 fluorescence microscope.

NASH-induced model mouse [16] = assay: blood biochemical test: serum bilirubin, NASH-induced model; conditions: for Bilirubin: serum, HFD + Colchicine alone
[17] = system: Dgat (Diglyceride acyltransferase); assay: expression of fat accumulation-related gene Dgat in liver tissues, NASH-induced model; type: in vivo, mouse; conditions: high fat diet 30 weeks
Method: as §1

[18] = colchicine 40 μg/kg alone, orally once a day
[19] = 5 nM colchicine alone, 0.2 mM palmitate after 8 hours, additional 16 hours
[20] = co-administration with colchicine 40 μg/kg, for each sitagliptin concentration
[21] = high-fat diet 30 weeks, sitagliptin co-administered with colchicine by concentration
[22] = co-administration with colchicine, for each sitagliptin concentration

COc1cc2c(c(OC)c1OC)-c1ccc(OC)c(=O)cc1[C@@H](NC(C)=O)CC2 [Colchicine, colchicine]
reduced: expression of collagen I in liver tissues (collagen I [3]; colchicine 40 μg/kg alone) | expression of TGF-β1 in liver tissues (TGF-β1; colchicine 40 μg/kg alone) | expression of SREBP1 induced by palmitate (SREBP1 [4]; [19]) | accumulation of hydroxyproline in liver tissues (NASH-induced model mouse [5]; [18]) | expression of ApoA1 in liver tissues ([6]; colchicine 40 μg/kg alone) | expression of IL-1β induced by palmitate (IL-1β [9]; [19]) | expression of collagen I increased by TGF-β1 (collagen I [11]; 5 nM colchicine alone, TGF-β1 (5 ng/ml) after 8 hours, additional 16 hours) | expression of TNF-α in liver tissues (TNF-α; colchicine 40 μg/kg alone) | expression of α-SMA in liver tissues ([12]; colchicine 40 μg/kg alone) | expression of IL-1β in liver tissues (IL-1β [13]; colchicine 40 μg/kg alone) | expression of SREBP1 in liver tissues (SREBP1 [14]; colchicine 40 μg/kg alone) | expression of IL-6 in liver tissues (IL-6; colchicine 40 μg/kg alone) | production of superoxide in liver tissues (NASH-induced model mouse [15]; colchicine 40 μg/kg alone) | expression of Dgat in liver tissues ([17]; colchicine 40 μg/kg alone)
decreased: ALT (NASH-induced model mouse [2]; listed as colchicine) | AST (NASH-induced model mouse [7]; listed as colchicine) | Total cholesterol (NASH-induced model mouse [8]; listed as colchicine) | Triglyceride (NASH-induced model mouse [10]; listed as colchicine) | Bilirubin (NASH-induced model mouse [16]; listed as colchicine)
264.8 ± 0.87 mg/dL: Total cholesterol (NASH-induced model mouse [8])
200.7 ± 2.74 U/L: AST (NASH-induced model mouse [7])
slightly reduced: fat accumulation in liver tissues (H&E) [1, 18]
201.9 ± 0.27 mg/dL: Triglyceride (NASH-induced model mouse [10])
154.7 ± 4.24 U/L: ALT (NASH-induced model mouse [2])
0.57 ± 0.05 mg/dL: Bilirubin (NASH-induced model mouse [16])

CC(C)(C)OC[C@@H]1C(=O)NCCN1C(=O)C[C@H](N)Cc1cc(F)c(F)cc1F [evogliptin]
slight additive interaction: additive interaction with colchicine in inhibiting the expression of collagen I (collagen I [11])

N[C@@H](CC(=O)N1CCn2c(nnc2C(F)(F)F)C1)Cc1cc(F)c(F)cc1F [sitagliptin]
decreases further: level of ALT in serum, additive interaction compared with colchicine alone (NASH-induced model mouse [2]; [21]) | level of AST in serum, additive interaction compared with colchicine alone (NASH-induced model mouse [7]; [21]) | level of cholesterol in serum, additive interaction compared with colchicine alone (NASH-induced model mouse [8]; [21]) | level of triglyceride in serum, additive interaction compared with colchicine alone (NASH-induced model mouse [10]; [21]) | level of bilirubin in serum, additive interaction compared with colchicine alone (NASH-induced model mouse [16]; [21])
additive interaction: steatosis reduction effect, interaction with colchicine [1, 20] | effect of reducing the expression of collagen I, interaction with colchicine (collagen I [3]; [22]) | effect of reducing the expression of TGF-β1, interaction with colchicine (TGF-β1; [22]) | hydroxyproline inhibitory effect, interaction with colchicine (NASH-induced model mouse [5]; [20]) | effect of reducing the expression of ApoA1, interaction with colchicine [6, 22] | effect of reducing the expression of TNF-α, interaction with colchicine (TNF-α; [22]) | effect of reducing the expression of α-SMA, interaction with colchicine [12, 22] | effect of reducing the expression of IL-1β, interaction with colchicine (IL-1β [13]; [22]) | effect of reducing the expression of SREBP1, interaction with colchicine (SREBP1 [14]; [22]) | effect of reducing the expression of IL-6, interaction with colchicine (IL-6; [22]) | effect of reducing the production of superoxide, interaction with colchicine (NASH-induced model mouse [15]; [22]) | effect of reducing the expression of Dgat, interaction with colchicine [17, 22]
most excellent additive interaction: additive interaction with colchicine in inhibiting the expression of SREBP1 (SREBP1 [4]) | additive interaction with colchicine in inhibiting the expression of IL-1β (IL-1β [9]; 5 nM colchicine + 30 μg/ml DPP-4 inhibitor, 0.2 mM palmitate) | additive interaction with colchicine in inhibiting the expression of collagen I (collagen I [11])

Cc1cc(N2CCN([C@@H]3CN[C@H](C(=O)N4CCSC4)C3)CC2)n(-c2ccccc2)n1 [teneligliptin]
excluding: additive interaction with colchicine in inhibiting the expression of SREBP1 (SREBP1 [4])
slight additive interaction: additive interaction with colchicine in inhibiting the expression of collagen I (collagen I [11])

N#C[C@@H]1CCCN1C(=O)CNC12CC3CC(CC(O)(C3)C1)C2 [vildagliptin]
slight additive interaction: additive interaction with colchicine in inhibiting the expression of collagen I (collagen I [11])
